In patent US9707284B2, “Formulations of peptides and chloroquines for the treatment of pathogenic immune responses in immune mediated diseases” (The Regents of the University of California, priority 2006, dated 2017):
Where a SMILES comes first, the peptide text is derived from it.

Experiments:
[1] = Phase II clinical trial with dnaJP1 in RA: safety, adverse events; type: in vivo, human; settings: 25 mg per os daily, 168 days
Description: A double-blinded, placebo-controlled ITT trial was designed to test for the first time if immune tolerization to dnaJp1 observed in the trial translated into clinical amelioration of the disease. dnaJP1 was tested as a first line inducer of remission in patients with early RA.

[2] = tested on: T cells; settings: human, in vivo

SMILES: C[C@H](NC(=O)[C@H](C)NC(=O)[C@H](Cc1c[nH]cn1)NC(=O)CNC(=O)[C@H](Cc1ccc(O)cc1)NC(=O)[C@H](CCC(N)=O)NC(=O)[C@H](CC(=O)O)NC(=O)[C@H](Cc1ccc(O)cc1)NC(=O)[C@H](C)NC(=O)[C@H](C)NC(=O)[C@H](CCCNC(=N)N)NC(=O)[C@H](CCCCN)NC(=O)[C@@H](N)CCC(N)=O)C(=O)N[C@@H](Cc1ccccc1)C(=O)N[C@@H](CCC(=O)O)C(=O)O [dnaJP1, QKRAAYDQYGHAAFE] (H-QKRAAYDQYGHAAFE-OH)
- safety and tolerability [1]: safe and well tolerated
- ability of T cells to respond to the recall antigen Tetanus Toxoid [2]: remained intact
